Results: patent publication US11731943B2, “Therapeutic compounds, compositions and methods of use thereof” (priority 2016, dated 2023)
pKi: −log10 of the molar value. Like-named read-outs stand apart in the source and are kept apart here.

Experiments:
[1] = molecular target: isolated recombinant JAK1 kinase domain (Homo sapiens (Human), UniProt P23458); test: JAK1 enzyme assay (Caliper LabChip, Ki); type: biochemical
Method: (§1) JAK Enzyme Assays were carried out as follows:
(§2) The activity of the isolated recombinant JAK1 and JAK2 kinase domain was measured by monitoring phosphorylation of a peptide derived from JAK3 (Val-Ala-Leu-Val-Asp-Gly-Tyr-Phe-Arg-Leu-Thr-Thr, fluorescently labeled on the N-terminus with 5-carboxyfluorescein) using the Caliper LabChip® technology (Caliper Life Sciences, Hopkinton, Mass.). […] Reactions were incubated at 22° C. in 384-well polypropylene microtiter plates for 30 minutes and then stopped by addition of 25 μL of an EDTA containing solution (100 mM HEPES buffer (pH 7.2), 0.015% Brij-35, 150 mM EDTA), resulting in a final EDTA concentration of 50 mM. After termination of the kinase reaction, the proportion of phosphorylated product was determined as a fraction of total peptide substrate using the Caliper LabChip® 3000 according to the manufacturer's specifications. Ki values were then determined using the Morrison tight binding model (Morrison, J. F., Biochim. Biophys. Acta. 185:269-296 (1969); William, J. W. and Morrison, J. F., Meth. Enzymol., 63:437-467 (1979)) modified for ATP-competitive inhibition [Ki=Ki,app/(1+[ATP]/Km,app)].

[2] = molecular target: isolated recombinant JAK2 kinase domain (Homo sapiens (Human), UniProt O60674); test: JAK2 enzyme assay (Caliper LabChip, Ki); type: biochemical
Method: as §1
as §2, with “([…]” for “(Val-Ala-Leu-Val-Asp-Gly-Tyr-Phe-Arg-Leu-Thr-Thr,”, “specifications.” for “specifications. Ki values were then determined using the Morrison tight binding model (Morrison, J. F., Biochim. Biophys. Acta. 185:269-296 (1969); William, J. W. and Morrison, J. F., Meth. Enzymol., 63:437-467 (1979)) modified for ATP-competitive inhibition [Ki=Ki,app/(1+[ATP]/Km,app)].”

isolated recombinant JAK1 kinase domain, sequence (P23458 875-1153): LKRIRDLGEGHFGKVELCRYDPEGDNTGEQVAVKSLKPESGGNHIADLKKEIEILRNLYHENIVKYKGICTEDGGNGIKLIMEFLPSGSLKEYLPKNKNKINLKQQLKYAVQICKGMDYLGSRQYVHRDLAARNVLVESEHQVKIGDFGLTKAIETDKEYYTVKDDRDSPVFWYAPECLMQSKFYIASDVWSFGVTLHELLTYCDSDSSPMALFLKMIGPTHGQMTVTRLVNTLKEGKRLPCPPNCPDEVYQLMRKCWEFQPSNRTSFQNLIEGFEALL
isolated recombinant JAK2 kinase domain, sequence (O60674 849-1124): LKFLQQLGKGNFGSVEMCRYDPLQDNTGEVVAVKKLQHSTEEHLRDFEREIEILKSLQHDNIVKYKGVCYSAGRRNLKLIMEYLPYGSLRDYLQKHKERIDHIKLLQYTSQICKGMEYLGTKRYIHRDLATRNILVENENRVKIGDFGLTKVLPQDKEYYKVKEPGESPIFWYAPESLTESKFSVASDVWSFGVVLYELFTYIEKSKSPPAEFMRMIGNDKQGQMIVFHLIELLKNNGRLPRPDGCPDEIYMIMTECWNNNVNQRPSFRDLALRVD

| SMILES | pKi ([1]; read-out: JAK1 Ki) | pKi [2] | pKi [1] |
| --- | --- | --- | --- |
| COC1(C(F)(F)F)CN([C@H]2CC[C@](CC#N)(n3cc(C(N)=O)c(NC(=O)C4CC4)n3)CC2)C1 [Example 132] | 6.66 | < 6.50 | – |
| N#CC[C@]1(n2cc(C(N)=O)c(NC(=O)C3CC3)n2)CC[C@@H](NCc2ccc(F)cc2)CC1 [Example 116] | – | < 6.50 | 6.79 |
| N#CC[C@]1(n2cc(C(N)=O)c(NC(=O)C3CC3)n2)CC[C@H](NCCC(F)(F)F)CC1 [Example 125] | – | 7.11 | 8.14 |
| CS(=O)(=O)Nc1ccccc1CN1CCC(CC#N)(n2cc(C(N)=O)c(NC(=O)C3CC3)n2)CC1 [Example 44] | 7.56 | 6.76 | – |
| CC(F)(F)C(=O)N1CCC(CC#N)(n2cc(C(N)=O)c(NC(=O)C3CC3)n2)CC1 [Example 171, 1-[4-(cyanomethyl)-1-(2,2-difluoropropanoyl)-4-piperidyl]-3-(cyclopropanecarbonylamino) pyrazole-4-carboxamide] | 8.18 | 7.52 | – |
| N#CCC1(n2cc(C(N)=O)c(NC(=O)C3CC3)n2)CCN(CCC(F)(F)F)CC1 [Example 96] | 7.62 | 6.95 | – |
| N#CC[C@]1(n2cc(C(N)=O)c(NC(=O)C3CC3)n2)CC[C@H](NCc2ccccc2)CC1 [Example 109] | – | < 6.50 | < 6.25 |
| N#CC[C@]1(n2cc(C(N)=O)c(NC(=O)C3CC3)n2)CC[C@@H](NCc2ccccc2F)CC1 [Example 112] | – | < 6.50 | < 6.25 |
| N#CCC1(n2cc(C(N)=O)c(NC(=O)C3CC3)n2)CCN(Cc2cccc(-c3ccccc3)c2)CC1 (racemic) [Example 37] | – | 6.57 | 7.46 |
| N#CC[C@]1(n2cc(C(N)=O)c(NC(=O)C3CC3)n2)CC[C@H](NCc2cccc(C#N)c2)CC1 [Example 123] | – | < 6.50 | < 6.25 |
| N#CC[C@]1(n2cc(C(N)=O)c(NC(=O)C3CC3)n2)CC[C@H](NCc2ccc(-c3ccccc3)cc2)CC1 [Example 127] | – | < 6.50 | < 6.25 |
| N#CC[C@]1(n2cc(C(N)=O)c(NC(=O)C3CC3)n2)CC[C@H](NC2CCOCC2)CC1 [Example 103] | – | < 6.50 | 7.42 |
| N#CC[C@]1(n2cc(C(N)=O)c(NC(=O)C3CC3)n2)CC[C@H](NCc2ccccc2F)CC1 [Example 111] | – | 7.06 | 8.02 |
| CC1(C)CN([C@H]2CC[C@](CC#N)(n3cc(C(N)=O)c(NC(=O)C4CC4)n3)CC2)C1 [Example 105] | – | < 6.50 | < 6.25 |
| N#CCC1(n2cc(C(N)=O)c(NC(=O)C3CC3)n2)CCN(Cc2ccc(N3CCCCC3)cc2)CC1 (racemic) [Example 39] | – | < 6.50 | 7.01 |
| N#CCC1(n2cc(C(N)=O)c(NC(=O)C3CC3)n2)CCN(Cc2ccc(N3CCCC3)cc2)CC1 [Example 84] | 7.07 | < 6.50 | – |
| CS(=O)(=O)c1cccc(CN2CCC(CC#N)(n3cc(C(N)=O)c(NC(=O)C4CC4)n3)CC2)c1 [Example 70] | 7.51 | < 6.50 | – |
| N#CCC1(n2cc(C(N)=O)c(NC(=O)C3CC3)n2)CCN(Cc2cnn(-c3ccccc3)c2)CC1 [Example 90] | 8.14 | 6.87 | – |
| N#CC[C@]1(n2cc(C(N)=O)c(NC(=O)C3CC3)n2)CC[C@@H](NCc2cccc(C#N)c2)CC1 [Example 124] | – | 6.56 | 7.49 |
| N#CCC1(n2cc(C(N)=O)c(NC(=O)C3CC3)n2)CCN(C(=O)Cc2ccccc2)CC1 [Example 18, 1-(4-(Cyanomethyl)-1-(2-phenylacetyl)piperidin-4-yl)-3-(cyclopropanecarboxamido)-1H-pyrazole-4-carboxamide] | 7.51 | 6.63 | – |
| N#CC[C@]1(n2cc(C(N)=O)c(NC(=O)C3CC3)n2)CC[C@H](NC2CCC(F)(F)CC2)CC1 [Example 174, 1-[1-(cyanomethyl)-4-[(4,4-difluorocyclohexyl)amino]cyclohexyl]-3-(cyclopropanecarbonylamino) pyrazole-4-carboxamide] | – | < 6.50 | < 6.25 |
| N#CCC1(n2cc(C(N)=O)c(NC(=O)C3CC3)n2)CCN(Cc2ccc(-c3cccnc3)cc2)CC1 [Example 158] | 8.10 | 7.40 | – |
| N#CCC1(n2cc(C(N)=O)c(NC(=O)C3CC3)n2)CCN(Cc2cccc(C(F)(F)F)c2)CC1 [Example 62] | 7.56 | 6.55 | – |

| SMILES | pKi ([1]; read-out: JAK1 Ki) | pKi [2] | pKi [1] |
| --- | --- | --- | --- |
| N#CCC1(n2cc(C(N)=O)c(NC(=O)C3CC3)n2)CCN(Cc2ccccc2OC(F)(F)F)CC1 [Example 47] | 7.47 | 6.60 | – |
| N#CC[C@]1(n2cc(C(N)=O)c(NC(=O)C3CC3)n2)CC[C@@H](N2CC3(CCC3)C2)CC1 [Example 108] | – | 6.69 | 6.33 |
| CS(=O)(=O)c1ccc(CN2CCC(CC#N)(n3cc(C(N)=O)c(NC(=O)C4CC4)n3)CC2)cc1 [Example 71] | 7.47 | < 6.50 | – |
| N#CC[C@]1(n2cc(C(N)=O)c(NC(=O)C3CC3)n2)CC[C@H](N2CC(F)C2)CC1 [Example 181, 1-[1-(cyanomethyl)-4-(3-fluoroazetidin-1-yl)cyclohexyl]-3-(cyclopropanecarbonylamino) pyrazole-4-carboxamide] | – | < 6.50 | < 6.25 |
| N#CCC1(n2cc(C(N)=O)c(NC(=O)C3CC3)n2)CCN(Cc2ccc(SC(F)(F)F)cc2)CC1 [Example 68] | 7.41 | < 6.50 | – |
| N#CC[C@]1(n2cc(C(N)=O)c(NC(=O)C3CC3)n2)CC[C@H](NCc2ccc(F)cc2)CC1 [Example 115] | – | 6.52 | 7.66 |
| N#CCC1(n2cc(C(N)=O)c(NC(=O)C3CC3)n2)CCN(Cc2cccc(Br)c2)CC1 [Example 51] | 8.19 | 7.27 | – |
| N#CCC1(n2cc(C(N)=O)c(NC(=O)C3CC3)n2)CCN(Cc2ccccc2Br)CC1 [Example 50] | 8.21 | 7.18 | – |
| N#CC[C@]1(n2cc(C(N)=O)c(NC(=O)C3CC3)n2)CC[C@@H](NCCC(F)(F)F)CC1 [Example 126] | – | < 6.50 | 6.73 |
| CC(c1ccccc1)N1CCC(CC#N)(n2cc(C(N)=O)c(NC(=O)C3CC3)n2)CC1 (centres unmarked) [Example 22] | 7.43 | 6.82 | – |
| COC1CN([C@H]2CC[C@](CC#N)(n3cc(C(N)=O)c(NC(=O)C4CC4)n3)CC2)C1 [Example 101] | – | < 6.50 | < 6.25 |
| COc1cccc(CN2CCC(CC#N)(n3cc(C(N)=O)c(NC(=O)C4CC4)n3)CC2)c1 [Example 42] | 8.11 | 7.02 | – |
| N#CCC1(n2cc(C(N)=O)c(NC(=O)C3CC3)n2)CCN(C(CO)c2ccccc2)CC1 (centres unmarked) [Example 19, 1-(4-(Cyanomethyl)-1-(2-hydroxy-1-phenylethyl)piperidin-4-yl)-3-(cyclopropanecarboxamido)-1H-pyrazole-4-carboxamide] | – | < 6.50 | 7.16 |
| COc1ccccc1CN1CCC(CC#N)(n2cc(C(N)=O)c(NC(=O)C3CC3)n2)CC1 [Example 41] | 7.27 | < 6.50 | – |
| N#CCC1(n2cc(C(N)=O)c(NC(=O)C3CC3)n2)CCN(Cc2ccc(-n3cnc4ccccc43)cc2)CC1 [Example 88] | 7.58 | 6.82 | – |
| N#CCC1(n2cc(C(N)=O)c(NC(=O)C3CC3)n2)CCN(C2CCN(C(=O)c3ccnc(C(F)(F)F)c3F)CC2)CC1 [Example 98] | 7.13 | 6.82 | – |
| N#CC[C@]1(n2cc(C(N)=O)c(NC(=O)C3CC3)n2)CC[C@@H](NCc2ccccc2Cl)CC1 [Example 118] | – | < 6.50 | < 6.25 |
| CC(C)(C)OC(=O)N[C@H]1CC[C@](CC#N)(n2cc(C(N)=O)c(NC(=O)C3CC3)n2)CC1 [Example 35] | – | 6.56 | 7.69 |
| N#CCC1(n2cc(C(N)=O)c(NC(=O)C3CC3)n2)CCN(Cc2ccc(-c3ccncc3)cc2)CC1 [Example 159, 1-[4-(cyanomethyl)-1-[[4-(4-pyridyl)phenyl]methyl]-4-piperidyl]-3-(cyclopropanecarbonylamino) pyrazole-4-carboxamide] | 7.72 | 6.99 | – |
| N#CCC1(n2cc(C(N)=O)c(NC(=O)[C@H]3C[C@@H]3C(F)(F)F)n2)CCN(CC(F)(F)F)CC1 [Example 27] | 6.99 | 6.11 | – |
| N#CC[C@]1(n2cc(C(N)=O)c(NC(=O)C3CC3)n2)CC[C@@H](NC2CC(F)(F)C2)CC1 [Example 173, 1-[1-(cyanomethyl)-4-[(3,3-difluorocyclobutyl)amino]cyclohexyl]-3-(cyclopropanecarbonylamino) pyrazole-4-carboxamide] | – | 7.15 | 8.06 |
| N#CCC1(n2cc(C(N)=O)c(NC(=O)C3CC3)n2)CCN(Cc2ccc3nc[nH]c3c2)CC1 [Example 73] | 7.24 | 6.57 | – |
| N#CCC1(n2cc(C(N)=O)c(NC(=O)C3CC3)n2)CCN(Cc2ccccc2I)CC1 [Example 53] | 8.15 | 7.00 | – |
